# pEC50: −log10 of the molar value. Structures can show the parent of a compound that is named as a salt.
# Tests used:
# in vivo = assay: in vivo; design: species or system BALB/c mice
# Procedure: The dosing solution was prepared in saline with a dosing volume of 10 mL/kg. Blood and tissue samples including liver, lung and spleen were collected at 0, 0.083, 0.25, 0.5, 0.75, 1, 2, 3, 4, 7, 24, 30, 48, 72 and 96 hr. […] Pharmacokinetic parameters (Cmax, Tmax, AUC and t1/2) were calculated with a non-compartmental approach using the Pharsight WinNonLin software (Ver. 6.4). The experimental procedures were approved by the Animal Care and Use Committee of Division of Veterinary Resources, NIH.
# [1] = system: clinical isolates of HSV2; assay: HSV-2 plaque assay in HFFs; format: cell-based; details: Human alphaherpesvirus 2, read-out: Mean EC50 ± SD
# Procedure: The pp28-luciferase HCMV Towne and a GCV-resistant pp28-luciferase were used. The recombinant viruses express luciferase under the control of the late CMV gene promoter, pp28. Luciferase expression is activated 48–72 hours post infection (hpi). The recombinant viruses provide a highly-sensitive reporter system which correlates with plaque reduction assay. The Towne HCMV strain (ATCC VR-977) was used for plaque reduction, quantitative reverse transcriptase PCR (qRT-PCR), and immunoprecipitation assays. Human herpes virus strains were: luciferase HSV1- KOS/Dlux/oriS [52] and clinical isolates of HSV2. The clinical isolates were provided by the clinical microbiology laboratory with no identifiers that can link to a specific subject. Murid Herpesvirus (MCMV: ATCC VR-1399) was used for infection of mouse embryonic fibroblasts (MEFs) and mice.
# Human Foreskin Fibroblasts (HFFs) passage 12–16 (ATCC, CRL-2088) and mouse embryonic fibroblasts (MEFs) passage 9–14 (ATCC, CRL-1658) were grown in Dulbecco's Modified Eagle Medium (DMEM) containing 10% fetal bovine serum (FBS) (Gibco, Carlsbad, CA) in a 5% CO2 incubator at 37°C. […] Luciferase activity was measured 72 h following second cycle infection. […] After incubation at 37°C for 10 days (for HCMV), 3 days for MCMV or 2 days (for HSV), the overlay was removed and plaques were counted after crystal violet staining.
# HCMV = assay: Virus entry, pp65 immunofluorescence assay; format: cell-based, Human Cytomegalovirus; details: emetine 75 nM, GCV 10 μM, CpG 2006 10 μM, added 24 h prior to infection
# [2] = 0.083 h after single oral 0.1 mg/kg, BALB/c mice
# [3] = 0.25 h after single oral 0.1 mg/kg, BALB/c mice
# [4] = 0.5 h after single oral 0.1 mg/kg, BALB/c mice
# [5] = 1 h after single oral 0.1 mg/kg, BALB/c mice
# [6] = 2 h after single oral 0.1 mg/kg, BALB/c mice
# [7] = 3 h after single oral 0.1 mg/kg, BALB/c mice
# [8] = 4 h after single oral 0.1 mg/kg, BALB/c mice
# [9] = 7 h after single oral 0.1 mg/kg, BALB/c mice
# [10] = 24 h after single oral 0.1 mg/kg, BALB/c mice
# [11] = 30 h after single oral 0.1 mg/kg, BALB/c mice
# [12] = 48 h after single oral 0.1 mg/kg, BALB/c mice
# [13] = 72 h after single oral 0.1 mg/kg, BALB/c mice
# [14] = 96 h after single oral 0.1 mg/kg, BALB/c mice
compound,measurement,setting,value
"CC[C@H]1CN2CCc3cc(OC)c(OC)cc3[C@@H]2C[C@@H]1C[C@H]1NCCc2cc(OC)c(OC)cc21 [emetine, emetine dihydrochloride hydrate]",LIVER Conc.,in vivo; [2],0.007 µmol/kg
same,LIVER Mean Conc.,in vivo; [2],3.59 ng/g
same,LUNG Conc.,in vivo; [2],0.002 µmol/kg
same,LUNG Mean Conc.,in vivo; [2],1.07 ng/g
same,LIVER Conc.,in vivo; [3],0.013 µmol/kg
same,LIVER Mean Conc.,in vivo; [3],6.18 ng/g
same,LUNG Conc.,in vivo; [3],0.003 µmol/kg
same,LUNG Mean Conc.,in vivo; [3],1.49 ng/g
same,LIVER Conc.,in vivo; [4],0.037 µmol/kg
same,LIVER Mean Conc.,in vivo; [4],17.7 ng/g
same,LUNG Conc.,in vivo; [4],0.006 µmol/kg
same,LUNG Mean Conc.,in vivo; [4],2.90 ng/g
same,SPLEEN Conc.,in vivo; [4],0.002 µmol/kg
same,SPLEEN Mean Conc.,in vivo; [4],1.12 ng/g
same,LIVER Conc.,in vivo; [5],0.117 µmol/kg
same,LIVER Mean Conc.,in vivo; [5],56.5 ng/g
same,LUNG Conc.,in vivo; [5],0.017 µmol/kg
same,LUNG Mean Conc.,in vivo; [5],8.11 ng/g
same,SPLEEN Conc.,in vivo; [5],0.012 µmol/kg
same,SPLEEN Mean Conc.,in vivo; [5],5.60 ng/g
same,LIVER Conc.,in vivo; [6],0.192 µmol/kg
same,LIVER Mean Conc.,in vivo; [6],92.2 ng/g
same,LUNG Conc.,in vivo; [6],0.020 µmol/kg
same,LUNG Mean Conc.,in vivo; [6],9.70 ng/g
same,SPLEEN Conc.,in vivo; [6],0.018 µmol/kg
same,SPLEEN Mean Conc.,in vivo; [6],8.81 ng/g
same,LIVER Conc.,in vivo; [7],0.316 µmol/kg
same,LIVER Mean Conc.,in vivo; [7],152 ng/g
same,LUNG Conc.,in vivo; [7],0.037 µmol/kg
same,LUNG Mean Conc.,in vivo; [7],17.9 ng/g
same,SPLEEN Conc.,in vivo; [7],0.032 µmol/kg
same,SPLEEN Mean Conc.,in vivo; [7],15.3 ng/g
same,LIVER Conc.,in vivo; [8],0.437 µmol/kg
same,LIVER Mean Conc.,in vivo; [8],210 ng/g
same,LUNG Conc.,in vivo; [8],0.071 µmol/kg
same,LUNG Mean Conc.,in vivo; [8],34.2 ng/g
same,SPLEEN Conc.,in vivo; [8],0.064 µmol/kg
same,SPLEEN Mean Conc.,in vivo; [8],30.6 ng/g
same,LIVER Conc.,in vivo; [9],0.527 µmol/kg
same,LIVER Mean Conc.,in vivo; [9],253 ng/g
same,LUNG Conc.,in vivo; [9],0.097 µmol/kg
same,LUNG Mean Conc.,in vivo; [9],46.6 ng/g
same,SPLEEN Conc.,in vivo; [9],0.093 µmol/kg
same,SPLEEN Mean Conc.,in vivo; [9],44.9 ng/g
same,LIVER Conc.,in vivo; [10],0.193 µmol/kg
same,LIVER Mean Conc.,in vivo; [10],93.0 ng/g
same,LUNG Conc.,in vivo; [10],0.138 µmol/kg
same,LUNG Mean Conc.,in vivo; [10],66.1 ng/g
same,SPLEEN Conc.,in vivo; [10],0.175 µmol/kg
same,SPLEEN Mean Conc.,in vivo; [10],84.3 ng/g
same,LIVER Conc.,in vivo; [11],0.174 µmol/kg
same,LIVER Mean Conc.,in vivo; [11],83.6 ng/g
same,LUNG Conc.,in vivo; [11],0.133 µmol/kg
same,LUNG Mean Conc.,in vivo; [11],64.1 ng/g
same,SPLEEN Conc.,in vivo; [11],0.193 µmol/kg
same,SPLEEN Mean Conc.,in vivo; [11],92.5 ng/g
same,LIVER Conc.,in vivo; [12],0.073 µmol/kg
same,LIVER Mean Conc.,in vivo; [12],34.9 ng/g
same,LUNG Conc.,in vivo; [12],0.078 µmol/kg
same,LUNG Mean Conc.,in vivo; [12],37.4 ng/g
same,SPLEEN Conc.,in vivo; [12],0.139 µmol/kg
same,SPLEEN Mean Conc.,in vivo; [12],66.6 ng/g
same,LIVER Conc.,in vivo; [13],0.044 µmol/kg
same,LIVER Mean Conc.,in vivo; [13],21.2 ng/g
same,LUNG Conc.,in vivo; [13],0.049 µmol/kg
same,LUNG Mean Conc.,in vivo; [13],23.7 ng/g
same,SPLEEN Conc.,in vivo; [13],0.094 µmol/kg
same,SPLEEN Mean Conc.,in vivo; [13],45.2 ng/g
same,LIVER Conc.,in vivo; [14],0.028 µmol/kg
same,LIVER Mean Conc.,in vivo; [14],13.5 ng/g
same,LUNG Conc.,in vivo; [14],0.030 µmol/kg
same,LUNG Mean Conc.,in vivo; [14],14.3 ng/g
same,SPLEEN Conc.,in vivo; [14],0.058 µmol/kg
same,SPLEEN Mean Conc.,in vivo; [14],28.1 ng/g
same,half-life,"in vivo; male, mouse, in vivo, single oral 0.1 mg/kg, BALB/c mice, read-out: calculated half-life (converted)",35 h
same,plasma concentrations,"in vivo; single oral 0.1 mg/kg, male BALB/c mice, UPLC-MS/MS",mostly below the level limit of quantification
same,pEC50,[1],7.48
same,inhibition of viral entry,HCMV,neither emetine nor GCV inhibited viral entry
